According to patent US4906467A, “Novel, long-duration treatment for glaucoma” (priority 1988, dated 1990):
Entries after “also recorded” stand apart in the source; their conditions may differ.

Columns and labels:
[1] = rabbit, in vivo
[2] = test system: corneal epithelial Na^+ -K^+ -ATPase; conditions: corneal epithelium, in vitro; cited from earlier work
[3] = test system: ciliary body Na^+ -K^+ -ATPase; conditions: cited from earlier work
intraocular pressure [4] = assay: Intraocular pressure after topical 12(R)-HETE (general statement); type: in vivo; conditions: effective dose
[5] = test system: RABBIT INTRAOCULAR PRESSURE; assay: Effect of topical 12(R)-HETE on rabbit intraocular pressure (pneumotometer); type: in vivo; conditions: for intraocular pressure, difference from baseline (mean ± SEM): n = 6
Method: A solution of 12(R)-HETE was prepared by dissolving 50 μg 12(R)-HETE in 1 ml ethanol and diluting to give aliquots containing 0.5 or 1.0 μg 12(R)-HETE in each of several containers. These could be frozen at -78° C. with or without ethanol. Before use, aliquots were warmed, ethanol was removed (if necessary) and sterile phosphate buffered saline (PBS) was added to give a concentration of 0.01 mg 12(R)-HETE/ml PBS. Rabbits were treated by administering 10 to 50 μl of 12(R)-HETE in PBS topically to the each eye of a 1.5 kg rabbit. Control rabbits were treated with PBS alone. Intraocular pressure was measured on a conventional pneumotometer, using a sensor size appropriate for the eye to be measured.
The pressure in each eye of the rabbits was measured several times before beginning the experiment to establish a baseline. Pressure was measured again just after administration of the test compound, then every 30 minutes for 180 minutes, daily for six days, and again on days 9 and 11. […] Table 1 illustrates the mean and standard error of the pressure difference from baseline in six animals treated with 0.5 μg 12(R)-HETE (per eye) compared with three controls, only one of which was tested after the first day.

Na^+ -K^+ -ATPases = conditions: cited from earlier work
[6] = Ocular side effects after topical administration in vivo (corneal thickness, clarity, side effects)
intraocular pressure [7] = conditions: cited from earlier work; for effect on intraocular pressure: in vivo
aqueous humor formation = conditions: in vivo; cited from earlier work
[8] = in vivo; cited from earlier work

## CCCCC/C=C\C[C@@H](O)/C=C/C=C\C/C=C\CCC[14C](=O)O [1-(^14 C)-12(R)-HETE]
[1]
  eye tissues with highest levels of 12(R)-HETE and its metabolites: The highest levels were found in the cornea, ciliary bodies and trabecular meshwork

## CCCCCC=CC[C@@H](O)C=CC=CCC=CCCCC(=O)O [12(R)-HETE, 12(R)-hydroxy-eicosa-5,8,10,14-tetraenoic acid]
[2]
  inhibition of Na+-K+-ATPase: only the R isomer exhibits a significant inhibition of enzyme activity; also recorded: inhibit Na^+ -K^+ -ATPase isolated from the ciliary body and the corneal epithelium; also recorded: inhibit Na^+ -K^+ -ATPase in the corneal epithelium in vitro
[3]
  inhibition of Na+-K+-ATPase: only the R isomer exhibits a significant inhibition of enzyme activity; also recorded: inhibit Na^+ -K^+ -ATPase isolated from the ciliary body
Intraocular pressure [4]
  duration of intraocular pressure decrease: a decrease in intraocular pressure for a period of several days; also recorded: remains depressed for several days
  onset of intraocular pressure drop: drops within a few minutes
[5]; 0 min., 0.5 μg per eye topical
  intraocular pressure, difference from baseline (mean ± SEM): -0.6 ± 0.9 mm Hg
[5]; 0.5 μg per eye, rabbits, Table 1
  onset and duration of intraocular pressure drop: short onset, sustained pressure drop
[5]; 0.5 μg per eye, vs PBS controls
  intraocular pressure in test animals compared with control animals: significantly below the pressure in control animals at all times after administration of the test drug
[5]; 30 min, 0.5 μg per eye topical
  intraocular pressure, difference from baseline (mean ± SEM): -3.5 ± 1.9 mm Hg
[5]; 60 min, 0.5 μg per eye topical
  intraocular pressure, difference from baseline (mean ± SEM): -5.6 ± 1.4 mm Hg
[5]; 90 min, 0.5 μg per eye topical
  intraocular pressure, difference from baseline (mean ± SEM): -5.6 ± 1.3 mm Hg
[5]; 120 min, 0.5 μg per eye topical
  intraocular pressure, difference from baseline (mean ± SEM): -7.2 ± 1.6 mm Hg
[5]; 150 min, 0.5 μg per eye topical
  intraocular pressure, difference from baseline (mean ± SEM): -4.7 ± 2.8 mm Hg
[5]; 180 min, 0.5 μg per eye topical
  intraocular pressure, difference from baseline (mean ± SEM): -4.1 ± 2.2 mm Hg
[5]; 2 days, 0.5 μg per eye topical
  intraocular pressure, difference from baseline (mean ± SEM): -3.2 ± 2.1 mm Hg
[5]; 3 days, 0.5 μg per eye topical
  intraocular pressure, difference from baseline (mean ± SEM): -4.2 ± 1.2 mm Hg
[5]; 4 days, 0.5 μg per eye topical
  intraocular pressure, difference from baseline (mean ± SEM): -4.2 ± 1.0 mm Hg
[5]; 5 days, 0.5 μg per eye topical
  intraocular pressure, difference from baseline (mean ± SEM): -5.2 ± 2.1 mm Hg
[5]; 6 days, 0.5 μg per eye topical
  intraocular pressure, difference from baseline (mean ± SEM): -6.0 + 1.2 mm Hg
[5]; 9 days, 0.5 μg per eye topical
  intraocular pressure, difference from baseline (mean ± SEM): -7.4 ± 1.7 mm Hg
[5]; 11 days, 0.5 μg per eye topical
  intraocular pressure, difference from baseline (mean ± SEM): -2.9 ± 1.5 mm Hg
[5]; Base (before dosing), 0.5 μg per eye, baseline 25.6 mm
  intraocular pressure, difference from baseline (mean ± SEM): 0.0 ± 1.4 mm Hg
Na^+ -K^+ -ATPases
  inhibition of Na+-K+-ATPases: inhibitor of Na^+ -K^+ -ATPases
[6]; doses up to 1 μg per eye
  untoward side effects: no untoward side effects have been observed
[6]; topical, in vivo
  corneal clarity: no loss of clarity
  corneal thickness: no increase in corneal thickness
  other observable side effects: no other observable side effects

## CCCCCC=CC[C@H](O)C=CC=CCC=CCCCC(=O)O [12(S)-HETE, reference compound]
[2]
  inhibition of Na+-K+-ATPase: only the R isomer exhibits a significant inhibition of enzyme activity
[3]
  inhibition of Na+-K+-ATPase: only the R isomer exhibits a significant inhibition of enzyme activity

## CC(=O)OC1CN2CCC1CC2 (stereo not drawn) [Aceclidine]
Intraocular pressure [7]; glaucoma
  effectiveness in reducing intraocular pressure compared with pilocarpine: approximately as effective as pilocarpine in reducing intraocular pressure

## CNC[C@H](O)c1ccc(O)c(O)c1 [Epinephrine]
Aqueous humor formation
  effect on production of aqueous humor: decreases production of aqueous humor
Intraocular pressure [7]
  effect on intraocular pressure: reducing the intraocular pressure

## CC[C@@H]1C(=O)OC[C@@H]1Cc1cncn1C [Pilocarpine]
[8]
  effect on pupil size / ciliary body tone / vision: pupillary constriction, spasm of accomodation
Intraocular pressure [7]
  effect on intraocular pressure: a transitory rise in intraocular pressure, followed by a more persistent fall

## CC(C)(C)NC[C@H](O)COc1nsnc1N1CCOCC1 [Timolol]
[8]
  side effects: The side effects are minimal, although systemic absorption of the drug can occur, leading to slowing of the heart
Aqueous humor formation
  effect on production of aqueous humor: appears to act by reducing the production of aqueous humor
Intraocular pressure [7]; glaucoma
  duration of beneficial effect: about 7 hours
Intraocular pressure [7]
  effect on intraocular pressure: effective in reducing intraocular pressure

## CC(=O)Nc1nnc(S(N)(=O)=O)s1 [acetazolamide]
Aqueous humor formation
  effect on production of aqueous humor: reduces the rate of aqueous humor formation
Intraocular pressure [7]
  effect on intraocular pressure: lowering intraocular pressure in patients with glaucoma

## CNCC(O)c1ccc(OC(=O)C(C)(C)C)c(OC(=O)C(C)(C)C)c1 (stereo not drawn) [dipivalyl epinephrine]
Aqueous humor formation
  effect on production of aqueous humor: decreases production of aqueous humor
Intraocular pressure [7]
  effect on intraocular pressure: reducing the intraocular pressure

## C[C@@H]1O[C@@H](O[C@H]2C[C@@H](O)[C@]3(CO)[C@H]4[C@H](O)C[C@]5(C)[C@@H](C6=CC(=O)OC6)CC[C@]5(O)[C@@H]4CC[C@]3(O)C2)[C@H](O)[C@H](O)[C@H]1O [ouabain]
[8]
  side effects: severe side effects including keratitis and inflammation of the cornea
Na^+ -K^+ -ATPases
  inhibition of Na+-K+-ATPases: inhibit Na^+ -K^+ -ATPases
Intraocular pressure [7]
  effect on intraocular pressure: decrease intraocular pressure
